Type in all cases: cell-based
The target in one test is T1, A455E CFTR (Homo sapiens, UniProt P13569, A455E).
T1 construct: expressed in transfected cells; host or cells: HEK293
Kind of test: YFP halide assay (YHA), HEK293, A455E. The settings on record: 24 h; forskolin + 0.5 μM potentiator.

For test [1], the target named is T2, F508del CFTR (Homo sapiens, UniProt P13569, DEL508-508). Kind of test: YFP halide assay (YHA), HEK293, F508del. Further details: University of North Carolina; host or cells: primary human bronchial epithelial cells, F508del/F508del donors. As for the experimental part:
HEK293 cells were transfected with 10–80 ng of plasmid encoding F508del, E92K, P67L, V232D, F508del/G550E, F508del/I539T or wild type CFTR and 20 ng of plasmid encoding YFP (H148Q/I152L/F47L) using jetPEI (Polyplus transfection). Directly after transfection, cells were seeded in black 96-well plates coated with poly-D-lysine at a density of 70,000 cells per well. The next day, cells were treated with corrector(s) for 24 h. After this incubation period, cells were washed twice with DPBS with Ca^2+ and Mg^2+. Subsequently, cells were treated with 10 μM forskolin and the desired concentration of potentiator in a volume of 40 μl and incubated at room temperature for 10 min, a time point optimized in previous experiments resulting in a good window (positive control/negative control > 2) and signal to background ratio. YFP fluorescence was measured using an EnVision plate reader (PerkinElmer). […] The excitation wavelength was 485 nm and the emission wavelength 530 nm. The capacity of potentiators to increase CFTR channel function was expressed as 1-(fluorescence 7 s after NaI addition (F)/fluorescence before NaI addition (F0)). For the different mutants, data was normalized using the formula: normalized response = 100^∗(absolute response – negative control response)/(GLPG2222 response – negative response) as such, GLPG2222 response corresponds to 100. Concentration–response experiments were fitted using a 4 parameter hill function of the form Response = Bottom + (Top - Bottom)/(1 + (EC50/concentration) ˆHillSlope)) to determine EC50 values.
FIGURE 7 YHA assay using CFTR mutant overexpression in HEK293 cells. Cells were incubated for 24 h with either a dose range of GLPG2737, GLPG2222 or VX809. After washing, cells were triggered with forskolin (50 μM for F508del, E92K, V232D and F508del/I539T, 10 μM for P67L or 1 μM for F508del/G550E) and 0.5 μM potentiator and YFP fluorescence was measured. Efficacy was determined using 10 μM GLPG2222 as positive control and DMSO as negative control in the assay. (A) Table with potency and efficacy obtained for the mutants and compounds tested. (B) Dose–response curves of GLPG2737. (C) Dose–response curves of GLPG2222. (D) Dose–response curves of VX-809. For panels (B–D), E92K mutant is represented in black, F508del mutant in blue, F508del/I539T mutant in green and V232D mutant in gray, all concentrations are tested in duplicate. […] All values containing these digits are best readings, e.g. GLPG2222 P67L EC50 206 (± 98), GLPG2222 E92K EC50 503 (± 109), VX809 F508del EC50 286 (± 35), VX809 P67L % of reference 88 (± 3), GLPG2737 F508del % of reference 138 (± 9). / GLPG2737, EC50 for P67L and E92K is printed as NA; left out because no value is given. / VX809, E92K EC50 error: 17, a digit may be missing.

The target in test [2] is T2, F508del CFTR. Kind of test: Western blot (Band B/C) in CSE-MEM cells. The note with it: 24 h, compound alone. Further details: University of North Carolina; host or cells: primary human bronchial epithelial cells, F508del/F508del donors. As for the experimental part: For Western blot, U2OS EA-MEM F508del CFTR (CSE-MEM) cells were seeded in six well plates at a density of 2.5e6 cells/well on day 1 and incubated at 37°C and 5% CO2. Cells were treated with corrector compounds on day 2 and were lysed 24 h later. For the lysis, cells were washed with 1 ml PBS and incubated with 300 μl cell dissociation solution/well (Sigma, Cat No. C5789-100ML) for 15 min at 37°C and 5% CO2. Medium was collected and centrifuged for 5 min at 1,000 rpm and the supernatant removed. The pellet was re-suspended for 30 min on ice in the lysis buffer containing 1% NP-40, 0.5% sodium deoxycholate, 200 mM NaCl, 10 mM Tris pH 7.8, 1 mM EDTA and a protease inhibitor cocktail tablet from Roche (Cat No. 11873580001). For gel electrophoresis, 2.5 μl 10X Nupage reducing agent (Invitrogen, Cat No. NP0004) and 6 μl 4X Nupage sample buffer (Invitrogen, Cat No. NP0007) were added to 17 μl lysate and incubated for 15 min at 37°C. […]
(In western blotting, separated proteins are transferred to a membrane and probed.)

The mark [3] stands for this setting: 24 h, 50 μM forskolin + 0.5 μM potentiator.

Where only a bound is given, the exact number is not on record here.

The values below come from PMC6521598, “Identification of GLPG/ABBV-2737, a Novel Class of Corrector, Which Exerts Functional Synergy With Other CFTR Modulators” (Frontiers in Pharmacology, 2019).

A word on the EC50: it is the concentration that produces a half-maximal response.

T2 sequence (P13569 with tags, fused parts or gaps DEL508-508): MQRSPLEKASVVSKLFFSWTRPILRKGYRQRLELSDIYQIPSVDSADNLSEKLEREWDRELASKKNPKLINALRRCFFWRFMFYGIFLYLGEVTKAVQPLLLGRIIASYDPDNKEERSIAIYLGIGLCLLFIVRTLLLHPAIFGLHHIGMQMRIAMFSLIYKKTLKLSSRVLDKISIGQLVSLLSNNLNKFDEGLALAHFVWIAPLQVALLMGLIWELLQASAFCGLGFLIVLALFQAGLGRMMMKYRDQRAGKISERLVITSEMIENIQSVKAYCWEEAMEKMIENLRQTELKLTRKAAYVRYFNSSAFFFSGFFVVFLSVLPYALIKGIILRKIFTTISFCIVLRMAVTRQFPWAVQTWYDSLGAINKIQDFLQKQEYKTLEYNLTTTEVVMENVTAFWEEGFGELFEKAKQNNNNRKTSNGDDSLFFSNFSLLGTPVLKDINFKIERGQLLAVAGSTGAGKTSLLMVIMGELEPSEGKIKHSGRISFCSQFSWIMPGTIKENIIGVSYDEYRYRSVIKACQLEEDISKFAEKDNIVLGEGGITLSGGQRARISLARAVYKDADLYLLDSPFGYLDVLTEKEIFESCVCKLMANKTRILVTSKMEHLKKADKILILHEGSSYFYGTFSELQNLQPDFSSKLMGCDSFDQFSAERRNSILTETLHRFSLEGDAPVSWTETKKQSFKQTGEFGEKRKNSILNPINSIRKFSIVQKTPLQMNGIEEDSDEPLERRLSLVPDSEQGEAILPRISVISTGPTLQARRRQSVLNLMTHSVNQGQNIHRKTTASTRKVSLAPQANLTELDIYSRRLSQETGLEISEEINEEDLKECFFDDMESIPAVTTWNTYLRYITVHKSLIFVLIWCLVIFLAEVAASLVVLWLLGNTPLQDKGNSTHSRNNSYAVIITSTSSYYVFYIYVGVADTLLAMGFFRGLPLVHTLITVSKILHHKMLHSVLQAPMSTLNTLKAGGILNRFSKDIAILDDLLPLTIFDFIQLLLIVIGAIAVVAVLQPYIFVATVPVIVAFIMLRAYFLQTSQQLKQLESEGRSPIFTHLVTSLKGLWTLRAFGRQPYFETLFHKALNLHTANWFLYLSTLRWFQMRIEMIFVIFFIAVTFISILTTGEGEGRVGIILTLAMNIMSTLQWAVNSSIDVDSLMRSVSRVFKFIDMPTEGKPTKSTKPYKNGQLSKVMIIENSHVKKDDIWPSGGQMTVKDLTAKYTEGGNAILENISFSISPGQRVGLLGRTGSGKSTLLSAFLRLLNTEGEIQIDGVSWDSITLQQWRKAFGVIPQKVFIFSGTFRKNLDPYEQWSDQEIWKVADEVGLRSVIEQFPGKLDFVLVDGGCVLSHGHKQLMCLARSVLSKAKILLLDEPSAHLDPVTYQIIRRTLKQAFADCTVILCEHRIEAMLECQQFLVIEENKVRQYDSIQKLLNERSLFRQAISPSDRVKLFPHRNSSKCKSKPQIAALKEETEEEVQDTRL
T1 sequence (P13569 whole entry A455E): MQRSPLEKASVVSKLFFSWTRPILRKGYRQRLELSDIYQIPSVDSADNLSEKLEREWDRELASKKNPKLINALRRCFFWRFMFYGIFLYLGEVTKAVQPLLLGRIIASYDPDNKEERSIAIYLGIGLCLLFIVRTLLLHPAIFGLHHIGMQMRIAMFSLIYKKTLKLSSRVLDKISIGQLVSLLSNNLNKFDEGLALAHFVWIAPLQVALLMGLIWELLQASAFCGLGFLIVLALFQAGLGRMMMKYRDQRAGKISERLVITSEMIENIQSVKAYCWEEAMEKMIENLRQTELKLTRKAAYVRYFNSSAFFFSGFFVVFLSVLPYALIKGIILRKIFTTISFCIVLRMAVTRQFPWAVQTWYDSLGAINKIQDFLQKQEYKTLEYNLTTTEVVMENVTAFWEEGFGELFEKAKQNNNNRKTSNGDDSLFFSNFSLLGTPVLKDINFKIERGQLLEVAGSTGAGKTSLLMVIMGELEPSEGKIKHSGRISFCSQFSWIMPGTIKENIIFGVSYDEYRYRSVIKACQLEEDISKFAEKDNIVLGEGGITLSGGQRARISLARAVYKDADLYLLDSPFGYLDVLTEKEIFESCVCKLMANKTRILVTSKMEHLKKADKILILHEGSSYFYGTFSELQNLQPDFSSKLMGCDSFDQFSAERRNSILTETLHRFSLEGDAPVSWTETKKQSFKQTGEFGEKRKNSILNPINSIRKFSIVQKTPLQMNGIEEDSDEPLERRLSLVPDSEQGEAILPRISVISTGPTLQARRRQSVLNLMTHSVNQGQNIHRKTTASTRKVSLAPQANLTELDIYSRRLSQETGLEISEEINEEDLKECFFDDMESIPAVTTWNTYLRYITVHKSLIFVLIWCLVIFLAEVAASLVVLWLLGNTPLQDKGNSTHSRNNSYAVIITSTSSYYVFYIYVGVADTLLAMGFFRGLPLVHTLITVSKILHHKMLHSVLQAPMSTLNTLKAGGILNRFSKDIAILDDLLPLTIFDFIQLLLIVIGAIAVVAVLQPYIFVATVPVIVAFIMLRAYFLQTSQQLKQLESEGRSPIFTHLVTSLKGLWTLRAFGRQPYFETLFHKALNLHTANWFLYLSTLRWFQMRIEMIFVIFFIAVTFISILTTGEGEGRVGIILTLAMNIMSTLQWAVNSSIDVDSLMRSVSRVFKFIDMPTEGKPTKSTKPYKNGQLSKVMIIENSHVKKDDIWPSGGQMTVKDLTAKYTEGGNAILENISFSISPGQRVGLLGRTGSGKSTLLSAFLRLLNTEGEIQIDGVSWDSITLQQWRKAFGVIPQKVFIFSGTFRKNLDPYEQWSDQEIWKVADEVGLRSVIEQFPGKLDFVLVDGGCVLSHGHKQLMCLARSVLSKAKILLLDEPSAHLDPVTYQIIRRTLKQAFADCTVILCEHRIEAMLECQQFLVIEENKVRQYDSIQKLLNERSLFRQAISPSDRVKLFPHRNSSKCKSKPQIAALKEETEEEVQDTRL

Take `O=C(O)c1ccc([C@H]2C[C@@H](NC(=O)C3(c4ccc5c(c4)OC(F)(F)O5)CC3)c3ccc(OC(F)F)cc3O2)cc1` [GLPG2222, 4-[(2 R,4 R)-4-({[1-(2,2-Difluoro-1,3-benzodioxol-5-yl)cyclopropyl]carbonyl}amino)-7-(difluoromethoxy)-3,4-dihydro-2 H -chromen-2-yl]benzoic Acid]: the results for the EC50 at A455E CFTR and at F508del CFTR [1] (setting [3]) were 33 nM and 14 nM, respectively.
On to `COC1CCN(C2CCN(c3cc(C(=O)NS(=O)(=O)N(C)C)nc4c3c(C3CCC3)nn4-c3ccc(F)cc3)CC2)CC1` [GLPG2737], for which the EC50 at A455E CFTR is more than 2640 nM; at F508del CFTR [1] (setting [3]) it was 2150 nM; on F508del CFTR [1] (YFP halide assay, F508del CFTR) it was 2200 ± 200 nM. Moreover, the “Band C (mature complex-glycosylated F508del CFTR)” value on F508del CFTR [2] is on record as “confirmed”.
